Read-outs that look alike come from different tables or passages of the source.
Legend:
[1] = biological target: human RORγt ligand binding domain (RORγt LBD) (Homo sapiens (Human), UniProt P51449); test: RORγt ThermoFluor® assay (thermal shift binding); conditions: read-out: ThermoFluor® Assay, Kd
In short: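 Thermal shift with 0.065 mg/mL RORγt LBD and 60 μM 1,8-ANS in 100 mM Hepes pH 7.0, 10 mM NaCl, 2.5 mM GSH, 0.002% Tween-20.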

full-length human RORγt = full-length human RORγt (Homo sapiens (Human), UniProt P51449); test: RORγt (full-length human) reporter assay, conditions A or B, HEK293T cells; assay type: cell-based; conditions: for IC50: RORγt (FL) Reporter Assay A or B, IC50, HEK293T cells; for inhibition at […]: 0.22 μM compound concentration (footnote *******); for inhibition at 6 µM: read-out: RORγt (FL) Reporter Assay A or B, % inhibition @ 6 μM
In short: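 Dual-luciferase read-out was taken after an overnight (16–20 h) compound exposure. Firefly data were scaled between DMSO-only and saturating reference compound, Renilla-normalized, then plotted against concentration for IC50.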

[2] = HEK-293T, 2 μM compound concentration, read-out: RORγt (FL) Reporter Assay A or B, % inhibition
[3] = HEK-293T, read-out: RORγt (FL) Reporter Assay A or B, % inhibition
[4] = HEK-293T, 6 μM compound concentration

full-length human RORγt, sequence (P51449 other isoform, or with tags, fused parts or gaps): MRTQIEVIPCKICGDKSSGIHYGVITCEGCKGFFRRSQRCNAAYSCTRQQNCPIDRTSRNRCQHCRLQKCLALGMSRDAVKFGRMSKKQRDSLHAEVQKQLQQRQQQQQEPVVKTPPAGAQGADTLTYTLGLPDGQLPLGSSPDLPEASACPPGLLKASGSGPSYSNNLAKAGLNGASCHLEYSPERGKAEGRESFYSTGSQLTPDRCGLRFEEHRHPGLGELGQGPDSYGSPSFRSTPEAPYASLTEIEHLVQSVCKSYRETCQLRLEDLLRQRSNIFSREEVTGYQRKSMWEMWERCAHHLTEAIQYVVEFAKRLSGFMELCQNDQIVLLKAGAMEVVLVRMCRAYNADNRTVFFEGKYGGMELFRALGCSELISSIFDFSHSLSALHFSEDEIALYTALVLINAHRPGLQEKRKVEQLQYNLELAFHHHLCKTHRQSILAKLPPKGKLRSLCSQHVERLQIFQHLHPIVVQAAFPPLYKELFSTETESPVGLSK
human RORγt ligand binding domain (RORγt LBD), sequence (P51449 other isoform, or with tags, fused parts or gaps): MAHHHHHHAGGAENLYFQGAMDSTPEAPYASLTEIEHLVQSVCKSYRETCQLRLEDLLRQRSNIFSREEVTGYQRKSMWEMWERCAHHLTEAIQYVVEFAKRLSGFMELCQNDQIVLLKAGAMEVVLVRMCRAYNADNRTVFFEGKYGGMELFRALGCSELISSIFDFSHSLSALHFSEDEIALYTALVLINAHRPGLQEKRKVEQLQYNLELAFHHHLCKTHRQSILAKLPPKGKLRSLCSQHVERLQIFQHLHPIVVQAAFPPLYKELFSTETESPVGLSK

Row | Kd [1] [nM] | inhibition at 2 µM (full-length human RORγt; [2]) [%] | IC50 (full-length human RORγt) [nM] | inhibition at […] (full-length human RORγt; [3]) [%] | inhibition at 6 µM (full-length human RORγt; [4]) [%] | inhibition at 2 µM (full-length human RORγt; [3]) [%] | inhibition at 6 µM (full-length human RORγt; HEK-293T) [%] | inhibition at 0.67 µM (full-length human RORγt; HEK-293T, 0.67 μM compound concentration (footnote ****), read-out: RORγt (FL) Reporter Assay A or B, % inhibition) [%] | SMILES
1 | 15 | 52 | 69 | – | – | – | – | – | CCn1nc(C(=O)NC[C@H]2CC[C@H](S(C)(=O)=O)CC2)c(Cl)c1-c1ccc(CCC(F)(F)F)cc1F [Example 179, 4-Chloro-1-ethyl-5-(2-fluoro-4-(3,3,3-trifluoropropyl)phenyl)-N-(((1r,4r)-4-(methylsulfonyl)cyclohexyl)methyl)-1H-pyrazole-3-carboxamide]
2 | 46 | 41 | 66 | – | – | – | – | – | CCn1nc(C(=O)NC[C@]2(O)CC[C@@H](S(C)(=O)=O)CC2)c(Cl)c1-c1ccc(CCC(F)(F)F)cc1F [Example 180, 4-Chloro-1-ethyl-5-(2-fluoro-4-(3,3,3-trifluoropropyl)phenyl)-N-(((1s,4s)-1-hydroxy-4-(methylsulfonyl)cyclohexyl)methyl)-1H-pyrazole-3-carboxamide]
3 | 7 | 101 | 45 | – | – | – | – | – | CCn1nc(C(=O)NC[C@H]2CC[C@H](S(C)(=O)=O)CC2)c(Cl)c1-c1ccc(N[C@H](C)C(F)(F)F)cc1F [Example 181, 4-Chloro-1-ethyl-5-(2-fluoro-4-(((R)-1,1,1-trifluoropropan-2-yl)amino)phenyl)-N-(((1r,4R)-4-(methylsulfonyl)cyclohexyl)methyl)-1H-pyrazole-3-carboxamide]
4 | 1 | – | 19 | 81 | – | – | – | – | CCn1nc(C(=O)NC[C@H]2CC[C@H](S(C)(=O)=O)CC2)c(Cl)c1-c1ccc(CC(C)(C)C(F)(F)F)cc1C [Example 182, 4-Chloro-1-ethyl-5-(2-methyl-4-(3,3,3-trifluoro-2,2-dimethylpropyl)phenyl)-N-(((1r,4r)-4-(methylsulfonyl)cyclohexyl)methyl)-1H-pyrazole-3-carboxamide]
5 | 3 | – | 3.9 | 70 | – | – | – | – | CCn1nc(C(=O)NC[C@]2(O)CC[C@@H](S(C)(=O)=O)CC2)c(Cl)c1-c1ccc(CC(C)(C)C(F)(F)F)cc1C [Example 183, 4-Chloro-1-ethyl-N-(((1s,4s)-1-hydroxy-4-(methylsulfonyl)cyclohexyl)methyl)-5-(2-methyl-4-(3,3,3-trifluoro-2,2-dimethylpropyl)phenyl)-1H-pyrazole-3-carboxamide]
6 | 13 | 101 | 52 | – | – | – | – | – | CCn1nc(C(=O)NC[C@H]2CC[C@H](S(C)(=O)=O)CC2)c(Cl)c1-c1ccc(N[C@H](C)C(F)(F)F)cc1C [Example 184, 4-Chloro-1-ethyl-5-(2-methyl-4-(((R)-1,1,1-trifluoropropan-2-yl)amino)phenyl)-N-(((1r,4R)-4-(methylsulfonyl)cyclohexyl)methyl)-1H-pyrazole-3-carboxamide]
7 | 2.4 | 92 | 30 | – | – | – | – | – | COCCn1nc(C(=O)NC[C@H]2CC[C@H](S(C)(=O)=O)CC2)c(Cl)c1-c1ccc(CC(C)(C)C(F)(F)F)cc1OC [Example 185, 4-Chloro-5-(2-methoxy-4-(3,3,3-trifluoro-2,2-dimethylpropyl)phenyl)-1-(2-methoxyethyl)-N-(((1r,4r)-4-(methylsulfonyl)cyclohexyl)methyl)-1H-pyrazole-3-carboxamide]
8 | 7.7 | – | 34 | – | 96 | – | – | – | COCCn1nc(C(=O)NC[C@]2(O)CC[C@@H](S(C)(=O)=O)CC2)c(Cl)c1-c1ccc(CC(C)(C)C(F)(F)F)cc1OC [Example 186, 4-Chloro-N-(((1s,4s)-1-hydroxy-4-(methylsulfonyl)cyclohexyl)methyl)-5-(2-methoxy-4-(3,3,3-trifluoro-2,2-dimethylpropyl)phenyl)-1-(2-methoxyethyl)-1H-pyrazole-3-carboxamide]
9 | 11 | 34 | > 2000 | – | – | – | – | – | CCn1nc(C(=O)NC[C@]2(O)CC[C@@H](S(C)(=O)=O)CC2)c(Cl)c1-c1ccc(CCC(F)(F)F)cc1OC(F)(F)F [Example 188, 4-Chloro-1-ethyl-N-(((1s,4s)-1-hydroxy-4-(methylsulfonyl)cyclohexyl)methyl)-5-(2-(trifluoromethoxy)-4-(3,3,3-trifluoropropyl)phenyl)-1H-pyrazole-3-carboxamide]
10 | 4.8 | – | > 2000 | – | – | 47 | – | – | CCn1nc(C(=O)NC[C@H]2CC[C@H](S(C)(=O)=O)CC2)c(Cl)c1-c1ccc(CCC(F)(F)F)cc1OC(F)(F)F [Example 189, 4-Chloro-1-ethyl-N-(((1r,4r)-4-(methylsulfonyl)cyclohexyl)methyl)-5-(2-(trifluoromethoxy)-4-(3,3,3-trifluoropropyl)phenyl)-1H-pyrazole-3-carboxamide]
11 | 1.2 | 104 | 21 | – | – | – | – | – | CCn1nc(C(=O)NC[C@H]2CC[C@H](S(C)(=O)=O)CC2)c(Cl)c1-c1ccc(N[C@H](C)C(F)(F)F)cc1OC(F)(F)F [Example 190, 4-Chloro-1-ethyl-N-(((1r,4R)-4-(methylsulfonyl)cyclohexyl)methyl)-5-(2-(trifluoromethoxy)-4-(((R)-1,1,1-trifluoropropan-2-yl)amino)phenyl)-1H-pyrazole-3-carboxamide]
12 | 29 | 93 | 120 | – | – | – | – | – | CCn1nc(C(=O)NC[C@H]2CC[C@H](S(C)(=O)=O)CC2)c(Cl)c1-c1ccc(N[C@H](C)C(F)(F)F)cc1 [Example 194, 4-Chloro-1-ethyl-N-(((1r,4R)-4-(methylsulfonyl)cyclohexyl)methyl)-5-(4-(((R)-1,1,1-trifluoropropan-2-yl)amino)phenyl)-1H-pyrazole-3-carboxamide]
13 | 52 | – | 300 | – | – | – | 96 | – | CCn1nc(C(=O)NC[C@]2(O)CC[C@@H](S(C)(=O)=O)CC2)c(Cl)c1-c1ccc(N[C@H](C)C(F)(F)F)cc1 [Example 195, 4-Chloro-1-ethyl-N-(((1s,4S)-1-hydroxy-4-(methylsulfonyl)cyclohexyl)methyl)-5-(4-(((R)-1,1,1-trifluoropropan-2-yl)amino)phenyl)-1H-pyrazole-3-carboxamide]
14 | 5.4 | 101 | 20 | – | – | – | – | – | CCn1nc(C(=O)NC[C@H]2CC[C@H](S(C)(=O)=O)CC2)c(Cl)c1-c1c(F)cc(N[C@H](C)C(F)(F)F)cc1F [Example 196, 4-Chloro-5-(2,6-difluoro-4-(((R)-1,1,1-trifluoropropan-2-yl)amino)phenyl)-1-ethyl-N-(((1r,4R)-4-(methylsulfonyl)cyclohexyl)methyl)-1H-pyrazole-3-carboxamide]
15 | 2 | – | 21 | – | – | – | – | 70 | CCn1nc(C(=O)NC[C@H]2CC[C@H](S(C)(=O)=O)CC2)c(Cl)c1-c1c(F)cc(CC(C)C(F)(F)F)cc1F (stereo partly drawn) [Example 197, 4-Chloro-5-(2,6-difluoro-4-(3,3,3-trifluoro-2-methylpropyl)phenyl)-1-ethyl-N-(((1r,4r)-4-(methylsulfonyl)cyclohexyl)methyl)-1H-pyrazole-3-carboxamide]
16 | 13 | 96 | 78 | – | – | – | – | – | COc1cc(CC(C)C(F)(F)F)ccc1-c1c(Cl)c(C(=O)NC[C@H]2CC[C@H](S(C)(=O)=O)CC2)nn1CCO (stereo partly drawn) [Example 200, 4-Chloro-1-(2-hydroxyethyl)-5-(2-methoxy-4-(3,3,3-trifluoro-2-methylpropyl)phenyl)-N-(((1r,4r)-4-(methylsulfonyl)cyclohexyl)methyl)-1H-pyrazole-3-carboxamide]
17 | 180 | – | 850 | – | 93 | – | – | – | COc1cc(N[C@H](C)C(F)(F)F)ccc1-c1c(Cl)c(C(=O)NC[C@H]2CC[C@H](S(C)(=O)=O)CC2)nn1CC(C)(C)O [Example 202, 4-Chloro-1-(2-hydroxy-2-methylpropyl)-5-(2-methoxy-4-(((R)-1,1,1-trifluoropropan-2-yl)amino)phenyl)-N-(((r,4R)-4-(methylsulfonyl)cyclohexyl)methyl)-1H-pyrazole-3-carboxamide]
18 | 13 | 102 | 53 | – | – | – | – | – | CCn1nc(C(=O)NC[C@H]2CC[C@H](S(C)(=O)=O)CC2)c(Cl)c1-c1ccc(N[C@H](C)C(F)(F)F)cc1C(C)C [Example 204, 4-Chloro-1-ethyl-5-(2-isopropyl-4-(((R)-1,1,1-trifluoropropan-2-yl)amino)phenyl)-N-(((1r,4R)-4-(methylsulfonyl)cyclohexyl)methyl)-1H-pyrazole-3-carboxamide]
19 | 5.4 | – | 29 | – | – | 104 | – | – | CCOc1cc(N[C@H](C)C(F)(F)F)ccc1-c1c(Cl)c(C(=O)NC[C@H]2CC[C@H](S(C)(=O)=O)CC2)nn1CC [Example 205, 4-Chloro-5-(2-ethoxy-4-(((R)-1,1,1-trifluoropropan-2-yl)amino)phenyl)-1-ethyl-N-(((1r,4R)-4-(methylsulfonyl)cyclohexyl)methyl)-1H-pyrazole-3-carboxamide]

From patent publication US10975037B2 (priority 2018, dated 2021)
